Columns and labels:
Type in all cases: in vivo
monochoria (Mo) = experiment: Test Example 1: herbicidal effects by paddy field soil treatment; settings: 100 g of the active ingredient per 10 ares, 21st day after the application, index 0-5 of Table 47;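 note: grade of growth control; 5 = at least 90%; 4 = 70 to 90%; 3 = 50 to 70%; 2 = 30 to 50%; 1 = 10 to 30%; 0 = under 10%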
How it was run: (§1)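 Greenhouse pot test in flooded paddy soil, dosed at 100 g a.i. per 10 ares; effect scored on day 21.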

barnyardgrass (Ec) = experiment: as above; settings: 100 g of the active ingredient per 10 ares, 21st day after the application, index 0-5 of Table 47;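 note: grade of growth control; 5 = at least 90%; 4 = 70 to 90%; 3 = 50 to 70%; 2 = 30 to 50%; 1 = 10 to 30%; 0 = under 10%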
How it was run: as §1

bulrush (Sc) = experiment: as above; settings: 100 g of the active ingredient per 10 ares, 21st day after the application, index 0-5 of Table 47;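 note: grade of growth control; 5 = at least 90%; 4 = 70 to 90%; 3 = 50 to 70%; 2 = 30 to 50%; 1 = 10 to 30%; 0 = under 10%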
How it was run: as §1

soybean (Gl) = experiment: Test Example 6: crop plant selectivity by upland field soil treatment (soybean), phytotoxicity; design: scale not given here; settings: 21st day after application
How it was run: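 Scoring took place 21 days after treatment using a set grading standard, covering both weed control and soybean injury. Seeds of soybean and weed species went into sand-filled pots under a soil cover before soil treatment and greenhouse culture.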

pale smartweed (Po) = experiment: Test Example 11: crop plant selectivity by upland field foliage treatment (corn), herbicidal effects; design: scale not given here; settings: dose 1.6 g ai/10a
How it was run: (§2)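 Corn and the weed species were sown together in sand-filled pots and grown in a greenhouse for 2 weeks before foliar treatment. Herbicidal effect was scored on day 14 after treatment against a graded standard scale, with corn phytotoxicity scored alongside.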

[1] = test system: common lambsquarters (Ch); experiment: as above; design: scale not given here; settings: dose 1.6 g ai/10a
How it was run: as §2

China jute (Ab) = experiment: as above; design: scale not given here; settings: dose 1.6 g ai/10a
How it was run: as §2

slender amaranth (Am) = experiment: as above; design: scale not given here; settings: dose 1.6 g ai/10a
How it was run: as §2

[2] = pale smartweed, foliage treatment, evaluated on 14th day after treatment, index per Table 47
[3] = common lambsquarters, foliage treatment, evaluated on 14th day after treatment, index per Table 47
[4] = China jute, foliage treatment, evaluated on 14th day after treatment, index per Table 47
[5] = slender amaranth, foliage treatment, evaluated on 14th day after treatment, index per Table 47
[6] = upland field foliage treatment (corn test), 14th day after treatment

SMILES	Herbicidal effects Mo (monochoria (Mo))	Herbicidal effects Ec (barnyardgrass (Ec))	Herbicidal effects Sc (bulrush (Sc))	Phytotoxicity Gl (soybean (Gl); dose 1.6 g ai/10a)	Herbicidal effects Po (pale smartweed (Po); [2])	Herbicidal effects Ch [1, 3]	Herbicidal effects Ab (China jute (Ab); [4])	Herbicidal effects Am (slender amaranth (Am); [5])	Herbicidal effects Po (pale smartweed (Po); [6])	Herbicidal effects Ch [1, 6]	Herbicidal effects Ab (China jute (Ab); [6])	Herbicidal effects Am (slender amaranth (Am); [6])	Phytotoxicity Gl (soybean (Gl); dose 6.3 g ai/10a)
C#CC(C)Oc1cc(-c2cn(C)c(C(F)(F)F)cc2=O)c(F)cc1Cl (racemic) [Compound 6-10]	5	5	5	0	4	5	5	5					
COc1cc(-c2ccc(C(F)(F)F)n(C)c2=O)c(F)cc1Cl [1-15]	5	5	5	2									
C=CCOc1cc(-c2ccc(C(F)(F)F)n(C)c2=O)c(F)cc1Cl [1-16]	5	5	5	1					5	5	5	5	
C#CC(C)Oc1cc(-c2ccc(C(F)(F)F)n(C)c2=O)c(F)cc1Cl (stereo not drawn) [1-17]	5	5	5	0									
C#CCOc1cc(-c2ccc(C(F)(F)F)n(C)c2=O)c(F)cc1Cl [1-18]	5	5	5	1					5	5	5	5	
Cn1c(C(F)(F)F)ccc(-c2cc(OCC#N)c(Cl)cc2F)c1=O [1-25]	5	5	5						5	5	5	5	2
C#CCOc1cc(-c2ccc(C(F)(F)F)n(C)c2=O)c(Cl)cc1Cl [1-30]	5	5	5	1					5	5	5	5	
CC(C)Sc1cc(-c2ccc(C(F)(F)F)n(C)c2=O)c(F)cc1Cl [1-43]	5	5	5										1
C#CCSc1cc(-c2ccc(C(F)(F)F)n(C)c2=O)c(F)cc1Cl [1-44]	5	5	5										1
CCOC(=O)c1cc(-c2ccc(C(F)(F)F)n(C)c2=O)c(F)cc1Cl [1-65]	5	5	5	1					5	5	5	5	1
Cc1cc(-c2ccc(C(F)(F)F)n(C)c2=O)c(F)cc1Cl [1-90]	5	5	5	2									2
COCSc1cc(-c2ccc(C(F)(F)F)n(C)c2=O)c(F)cc1Cl [1-91]	5	5	5	0									1
Cn1c(C(F)(F)F)ccc(-c2cc(Cl)c(Cl)cc2F)c1=O [1-136]	5	5	5	0									1
Cn1c(C(F)(F)F)ccc(-c2cc(OCC(F)(F)F)c(Cl)cc2F)c1=O [1-155]	5	5	5	0									0
Cn1c(C(F)(F)F)ccc(-c2cc(OCC3CC3)c(Cl)cc2F)c1=O [1-160]	5	5	5										1
C#CCOc1cc(-c2ccc(C(F)(F)F)n(N)c2=O)c(F)cc1Cl [1-178]	5	5	5						5	5	5	5	
COc1cc(-c2ccc(C(F)(F)F)n(N)c2=O)c(F)cc1Cl [1-179]	5	5	5						5	5	5	5	

SMILES	Herbicidal effects Mo (monochoria (Mo))	Herbicidal effects Ec (barnyardgrass (Ec))	Herbicidal effects Sc (bulrush (Sc))	Phytotoxicity Gl (soybean (Gl); dose 1.6 g ai/10a)	Herbicidal effects Po (pale smartweed (Po); [2])	Herbicidal effects Ch [1, 3]	Herbicidal effects Ab (China jute (Ab); [4])	Herbicidal effects Am (slender amaranth (Am); [5])	Herbicidal effects Po (pale smartweed (Po); [6])	Herbicidal effects Ch [1, 6]	Herbicidal effects Ab (China jute (Ab); [6])	Herbicidal effects Am (slender amaranth (Am); [6])	Phytotoxicity Gl (soybean (Gl); dose 6.3 g ai/10a)
CCOCOc1cc(-c2ccc(C(F)(F)F)n(C)c2=O)c(F)cc1Cl [1-181]	5	5	5						5	5	5	5	1
C#CC(C)Oc1cc(Cl)cc(F)c1-c1ccc(C(F)(F)F)n(C)c1=O (stereo not drawn) [1′-5]	5	5	5	1					5	5	5	5	2
C=CC(C)Oc1cc(-c2ccc(C(F)(F)F)n(C)c2=O)c(F)cc1Cl (stereo not drawn) [Compound 1-182]	5	5	5						5	5	5	5	1
CCOC(=O)CON=Cc1cc(-c2ccc(C(F)(F)F)n(C)c2=O)c(F)cc1Cl [Compound 1-191]	5	5	5						5	5	5	5	2
C=CC(O)c1cc(-c2ccc(C(F)(F)F)n(C)c2=O)c(F)cc1Cl (stereo not drawn) [Compound 1-197]	5	5	5						5	5	5	5	1
C#CC(O)c1cc(-c2ccc(C(F)(F)F)n(C)c2=O)c(F)cc1Cl (stereo not drawn) [Compound 1-202]	5	5	5	2									
C=CCN1C(=O)COc2cc(F)c(-c3ccc(C(F)(F)F)n(C)c3=O)cc21 [Compound 2-7]	5	5	5	0									0
C#CCN1C(=O)COc2cc(Cl)c(-c3ccc(C(F)(F)F)n(C)c3=O)cc21 [Compound 2-25]	5	5	5	0					5	5	5	5	1
C=CCN1C(=O)COc2cc(Cl)c(-c3ccc(C(F)(F)F)n(C)c3=O)cc21 [Compound 2-26]	5	5	5						5	5	5	5	1
Cc1cc2c(-c3ccc(C(F)(F)F)n(C)c3=O)c(F)cc(Cl)c2o1 [Compound 4-1]	5	5	5	1									2
CCc1cc2c(-c3ccc(C(F)(F)F)n(C)c3=O)c(F)cc(Cl)c2o1 [Compound 4-2]	5	5	5	1									
C#CCN1C(=O)COc2cc(F)c(-c3cn(C)c(C(F)(F)F)cc3=O)cc21 [Compound 7-1]	5	5	5		5	5	5	5					1
CON=Cc1cc(-c2ccc(C(F)(F)F)n(C)c2=O)c(F)cc1Cl [Compound No. 1-72, 5-(1-methyl-6-trifluoromethyl-2(1H)-pyridon-3-yl)-2-chloro-4-fluorobenzaldehydeoxime-O-methyl ether]	5	5	5	1					5	5	5	5	2
CCCC(=O)c1cc(-c2ccc(C(F)(F)F)n(C)c2=O)c(F)cc1Cl [Compound No. 1-194, 3-[4-chloro-2-fluoro-5-(1-oxobutyl)phenyl]-1-methyl-6-trifluoromethyl-2(1H)-pyridone]	5	5	5						5	5	5	5	1
C#CCn1c(=O)sc2cc(F)c(-c3ccc(C(F)(F)F)n(C)c3=O)cc21 [Compound No. 3-1, 3-[6-fluoro-3-(2-propynyl)-benzothiazolin-2-on-5-yl]-1-methyl-6-trifluoromethyl-2(1H)-pyridone]	5	5	5										1
Cn1cc(-c2cc(Oc3ccccc3)c(Cl)cc2F)c(=O)cc1C(F)(F)F [Compound No. 6-19, 5-(4-chloro-2-fluoro-5-phenoxyphenyl)-1-methyl-2-trifluoromethyl-4(1H)-pyridone]	5	5	5	0									0
Cc1cc2c(-c3cn(C)c(C(F)(F)F)cc3=O)c(F)cc(Cl)c2o1 [Compound No. 9-1, 5-(7-chloro-5-fluoro-2-methylbenzofuran-4-yl)-1-methyl-2-trifluoromethyl-4(1H)-pyridone]	5	5	5										

— patent publication US6472348B1, “Pyridone derivatives and herbicides” (Kumiai Chemical Industry Co., Ltd., priority 1996, dated 2002)
